{"source": "patent US9885086B2", "about": "“Phospholipase C gamma 2 and resistance associated mutations” (Pharmacyclics LLC, priority 2014, dated 2018)", "system": "DT40 cells stably expressing mutated PLCγ2 (L845F)", "assay": "Calcium flux assay in DT40 cells after anti-IgM stimulation", "type": "cell-based, chicken", "conditions": "L845F PLCγ2 mutant DT40 cells, 1 μM Ibrutinib 30 min", "experimental": "The intracellular calcium level was detected by Calcium Assay Kit (BD Biosciences, San Diego, Calif.) and measured by Beckman Coulter DTX880 microplate reader. After 195 seconds of acquisition to determine the baseline, 3 μg/ml anti-chicken IgM (SouthernBiotech, Birmingham, Ala.) was added to stimulate the cells.\nWT PLCγ2 and L845F PLCγ2 were stably transfected into 293 cells and DT40 cells which lack endogenous PLCγ2 expression (FIG. 5). Calcium flux was examined in DT40 cells after anti-IgM stimulation in the presence of WT or mutant PLCγ2.", "data": [{"smiles": "C=CC(=O)N1CCC[C@@H](n2nc(-c3ccc(Oc4ccccc4)cc3)c3c(N)ncnc32)C1", "note": "[ibrutinib]", "values": [{"measurement": "inhibition of IgM-mediated calcium flux", "value": "not inhibited"}]}]}
